# Assay results published in PMC11206695, “Chemical Behavior and Bioactive Properties of Spinorphin Conjugated to 5,5′-Dimethyl- and 5,5′-Diphenylhydantoin Analogs” (Pharmaceuticals, 2024).
# Marks after values point to notes of the source that are not given here.
# Experiments:
# Escherichia coli = experiment: Antibacterial disc diffusion; type: cell-based; details: 20 µL of 50 mg/mL on 6 mm disc, 24 h, 37 °C
# Method: Antibacterial activity is carried out with reference to the slightly modified method of Murray et al.. The bacteria used were Staphylococcus aureus, Escherichia coli, and Bacillus cereus. To test the antibacterial activity of 6 peptides, it is carried out as follows: taking 100 μL of spectrum bacteria ([…] bacteria) spread on the nutrient agar medium (NA). Furthermore, a paper disc (6 mm in diameter) was placed and then 20 μL of extract with a concentration of 50 mg/mL was dripped onto it. As a positive control, we used […] of chloramphenicol on the paper disc. DMSO 10% is used as a negative control according to peptide solvents. The treatment was repeated three times and then incubated for 24 h at a temperature of 37 °C. After that, an inhibitory power test measurement was carried out by measuring the diameter of the clear zone formed.
# [1] = Potentiometric titration for pK and pI; type: physicochemical; details: 12 µmol peptide, room temperature
# Method: Potentiometric titrations were performed to determine acid–base constants at room temperature using a potentiometric cell with a combined glass electrode and OMINS titration system (Metrohm). An OMNIS Digital Burette with an accuracy of ±0.01 mL was used to precisely add the titrant portions to the titrated aliquot (12 µmol) of the stock solution of the peptide compounds. The potentiometric titration results were processed mathematically to construct the titration curves and calculate the acid–base constants according to […] [16]. Isoelectric points correspond to pH points where the analyte and titrant interact in equimolar amounts (pH at the equivalence point).
# [2] = tested on: psychomotor seizures (6-Hz test) in mice; experiment: 6-Hz test; type: in vivo; details: i.c.v.; for No. of Animals Protected/No. of Animals Tested: 10 min after infusion
# Method: (§1) The spinorphin peptide analogues (S, Dm-S, Dm-S5, and Dm-S6 or PhS, PhS5, and PhS6) were administered intracerebroventricularly (i.c.v.) (10 μL/ventricle) at doses of 0.6, 1.2, and 2.4 μg, respectively, using a 28-gauge stainless-steel needle attached to a 50-μL Hamilton® syringe as previously described. The matched group (control) was treated with a vehicle. The seizure test was performed 10 min after the i.c.v. infusion.
# 6-Hz test. Psychomotor seizures were induced by corneal electrodes (constant current shock generator, 32 mA, 6 Hz, 3 s) as previously described. The return to a normal position, 10 s after stimulation, was used as a criterion for protection against psychomotor seizures.
# [3] = tested on: ivPTZ-induced myoclonic, clonic and tonic seizures in mice; experiment: Intravenous pentylenetetrazole seizure (ivPTZ) test; type: in vivo; details: i.c.v., doses of 0.62 µg and 1.25 µg, vs. vehicle-infused control (p < 0.05; p < 0.01)
# Method: as §1
# Intravenous Pentylenetetrazole Seizure (ivPTZ) Test The convulsant pentylenetetrazole (PTZ) (1%), dissolved in saline, was infused (0.005 mL/s) into a tail vein as previously performed. The activity to raise the threshold of ivPTZ-induced myoclonic, clonic, and tonic seizures and concentrations, quantity of infusion (mL), and mouse body weight were recorded.
# [4] = tested on: generalized seizures (MES test) in mice; experiment: Maximal electroshock (MES) test; type: in vivo; details: i.c.v.
# Method: as §1
# The generalized seizures were induced through a stronger stimulus of 50 mA, 60 Hz, 0.2 s, applied via the same corneal electrodes, in each mouse tested. The suppression of tonic hind limb extension, replaced by a clonic seizure, was accepted as a valid criterion for the anticonvulsant potency of the drug.
# [5] = isoelectric point = pH at equivalence point, potentiometric titration
# [6] = potentiometric titration with NaOH, aqueous
substance,measurement,setting,value
"H-LVVYPWT-NH2 [S, H-Leu-Val-Val-Tyr-Pro-Trp-Thr-NH2]","Antibacterial activity against E. coli (inhibitory zone, in words)",Escherichia coli,outperformed peptide analogues
same,pI1,[1]; [5],4.91
same,pI2,[1]; [5],8.31
same,pKa1,[1]; [6],3.15
same,pKa2,[1]; [6],6.78
same,% Protection,[2]; dose 0.62 µg/10 µL,50%
same,No. of Animals Protected/No. of Animals Tested,[2]; dose 0.62 µg/10 µL,3/6
same,% Protection,[2]; dose 1.25 µg/10 µL,50%
same,No. of Animals Protected/No. of Animals Tested,[2]; dose 1.25 µg/10 µL,3/6
same,% Protection,[2]; dose 2.5 µg/10 µL,67% *
same,No. of Animals Protected/No. of Animals Tested,[2]; dose 2.5 µg/10 µL,4/6
same,"Activity against myoclonic twitching, clonic seizures and forelimb tonic seizures (ivPTZ)",[3],anticonvulsant activity
same,% Mortality,"[4]; MES test, dose 0.62 µg/10 µL",0%
same,% Mortality,"[4]; MES test, dose 1.25 µg/10 µL",30%
same,% Mortality,"[4]; MES test, dose 2.5 µg/10 µL",50%
same,% Protection,"[4]; MES test, dose 2.5 µg/10 µL",50%
same,No. of Animals Protected/No. of Animals Tested,"[4]; MES test, dose 2.5 µg/10 µL, 10 min after infusion",3/6
same,Activity in the MES test (in words),[4]; text summary of Tables 4 and 5,inactive
